Results on 1 molecule are retold here after ChEMBL document CHEMBL1140941 (J Med Chem, 2009).

A short description of data set [1]: AUC (0 to t) in CD rat at 3 mg/kg, po. It is filed as ADME, organism-based. Also on record: dose 3 mg/kg, route oral. The note with it: plasma.
Data set [2] concerns the target T1, Peroxisome proliferator-activated receptor gamma (Homo sapiens) (UniProt P37231).
T1 sequence (whole entry): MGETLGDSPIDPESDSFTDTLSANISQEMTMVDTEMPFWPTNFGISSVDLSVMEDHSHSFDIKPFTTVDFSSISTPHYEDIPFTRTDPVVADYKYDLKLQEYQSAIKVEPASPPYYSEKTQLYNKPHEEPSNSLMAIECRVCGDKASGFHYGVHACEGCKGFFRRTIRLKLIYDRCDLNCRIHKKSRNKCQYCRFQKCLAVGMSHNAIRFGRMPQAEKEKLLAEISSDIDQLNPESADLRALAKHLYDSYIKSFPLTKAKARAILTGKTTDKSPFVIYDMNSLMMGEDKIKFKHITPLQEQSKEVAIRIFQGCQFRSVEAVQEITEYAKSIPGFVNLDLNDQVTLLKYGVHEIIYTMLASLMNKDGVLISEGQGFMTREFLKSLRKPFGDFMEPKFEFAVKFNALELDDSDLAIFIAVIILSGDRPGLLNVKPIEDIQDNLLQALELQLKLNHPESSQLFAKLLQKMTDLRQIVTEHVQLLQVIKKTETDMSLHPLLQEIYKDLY
The experiment in a line: Antagonist activity at PPARgamma expressed in african green monkey CV1 cells co-expressing PPRE by luciferase reporter gene assay. The settings on record: CV-1. The format is functional, cell-based. (In a reporter assay the amount or activity of a reporter protein is the signal.)

The nature of data set [3]: Half life in CD rat at 3 mg/kg, iv. The settings on record: in vivo. It is filed as ADME, organism-based. Also on record: dose 3 mg/kg, route intravenous.
For data set [4], the target named is Retinoic acid receptor RXR-alpha (Homo sapiens) (UniProt P19793). The experiment in a line: Agonist activity at RXRalpha-LBD expressed in african green monkey CV1 cells co-expressing MH100 by luciferase reporter gene assay. It is filed as functional, cell-based. The note with it: CV-1.
Retinoic acid receptor RXR-alpha (Homo sapiens), sequence (P19793 whole entry, the tested form may be a part): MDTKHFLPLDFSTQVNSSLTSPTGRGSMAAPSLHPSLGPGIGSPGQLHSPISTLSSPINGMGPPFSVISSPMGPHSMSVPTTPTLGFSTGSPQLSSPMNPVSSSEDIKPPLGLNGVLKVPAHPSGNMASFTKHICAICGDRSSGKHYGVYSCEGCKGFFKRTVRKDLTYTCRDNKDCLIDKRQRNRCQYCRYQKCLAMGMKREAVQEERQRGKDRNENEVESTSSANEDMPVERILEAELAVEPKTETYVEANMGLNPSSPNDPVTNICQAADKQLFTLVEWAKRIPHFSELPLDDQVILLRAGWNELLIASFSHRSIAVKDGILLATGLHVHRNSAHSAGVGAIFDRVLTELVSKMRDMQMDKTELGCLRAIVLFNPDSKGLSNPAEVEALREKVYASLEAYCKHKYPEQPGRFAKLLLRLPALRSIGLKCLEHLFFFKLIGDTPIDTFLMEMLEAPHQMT
Data set [5] has the same target. The experiment in a line: Agonist activity at RXRalpha-LBD expressed in african green monkey CV1 cells co-expressing MH100 up to 10 uM by luciferase reporter gene assay relative to control. The format is functional, cell-based. The note with it: CV-1.
For another data set, the system named is Mus musculus. The experiment in a line: Reduction of plasma triglyceride level in western diet-induced hyperlipidemia LDLR knockout mouse model at 1 mg/kg, po administered for 6 weeks. The format is functional. Also on record: scale not given: the % may be the effect or the level left.
The target in data set [6] is T2, Mineralocorticoid receptor (Homo sapiens) (UniProt P08235).
T2 sequence (whole entry): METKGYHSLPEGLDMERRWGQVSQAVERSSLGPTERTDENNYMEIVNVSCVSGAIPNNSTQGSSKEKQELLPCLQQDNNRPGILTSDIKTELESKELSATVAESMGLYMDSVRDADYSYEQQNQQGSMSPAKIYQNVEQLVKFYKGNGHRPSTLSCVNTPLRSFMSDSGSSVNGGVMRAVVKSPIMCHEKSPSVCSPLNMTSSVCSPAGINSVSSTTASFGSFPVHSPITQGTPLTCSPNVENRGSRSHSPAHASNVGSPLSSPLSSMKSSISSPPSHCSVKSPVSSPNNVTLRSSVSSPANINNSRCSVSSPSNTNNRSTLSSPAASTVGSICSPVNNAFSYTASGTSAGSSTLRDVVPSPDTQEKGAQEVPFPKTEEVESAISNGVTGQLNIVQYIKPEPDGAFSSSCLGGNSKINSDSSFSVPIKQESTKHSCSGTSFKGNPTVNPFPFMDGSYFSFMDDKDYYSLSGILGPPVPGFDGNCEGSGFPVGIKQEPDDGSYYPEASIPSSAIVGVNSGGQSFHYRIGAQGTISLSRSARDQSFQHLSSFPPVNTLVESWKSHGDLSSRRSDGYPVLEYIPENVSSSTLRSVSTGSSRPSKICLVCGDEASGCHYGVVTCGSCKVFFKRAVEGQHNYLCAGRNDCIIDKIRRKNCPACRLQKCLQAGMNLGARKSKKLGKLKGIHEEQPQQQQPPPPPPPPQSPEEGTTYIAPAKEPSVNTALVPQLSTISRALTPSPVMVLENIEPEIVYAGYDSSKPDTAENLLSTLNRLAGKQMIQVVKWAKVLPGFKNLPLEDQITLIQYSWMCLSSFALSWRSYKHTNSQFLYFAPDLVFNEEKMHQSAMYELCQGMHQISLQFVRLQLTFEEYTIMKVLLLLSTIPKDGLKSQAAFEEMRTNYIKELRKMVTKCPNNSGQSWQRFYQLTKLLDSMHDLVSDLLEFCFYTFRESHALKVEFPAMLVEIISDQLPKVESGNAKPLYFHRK
The experiment in a line: Agonist activity at gal-MR expressed in african green monkey CV1 cells co-expressing MH100 by luciferase reporter gene assay. It is filed as functional, cell-based. The note with it: CV-1.

Data set [7] has as its target T3, Peroxisome proliferator-activated receptor alpha (Homo sapiens) (UniProt Q07869).
T3 sequence (whole entry): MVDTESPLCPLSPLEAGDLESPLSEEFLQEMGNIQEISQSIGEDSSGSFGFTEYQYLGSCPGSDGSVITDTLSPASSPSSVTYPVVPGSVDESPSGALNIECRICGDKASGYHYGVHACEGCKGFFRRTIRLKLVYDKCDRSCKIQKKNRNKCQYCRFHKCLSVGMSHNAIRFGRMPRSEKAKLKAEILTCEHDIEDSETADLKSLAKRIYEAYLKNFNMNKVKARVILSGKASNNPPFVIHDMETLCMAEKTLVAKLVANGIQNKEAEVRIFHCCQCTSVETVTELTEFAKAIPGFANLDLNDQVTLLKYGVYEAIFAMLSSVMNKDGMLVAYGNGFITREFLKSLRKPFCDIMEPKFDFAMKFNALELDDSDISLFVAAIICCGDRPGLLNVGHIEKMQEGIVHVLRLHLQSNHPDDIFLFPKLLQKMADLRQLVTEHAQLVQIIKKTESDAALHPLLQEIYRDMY
The experiment in a line: Antagonist activity at PPARalpha expressed in african green monkey CV1 cells co-expressing MH100 by luciferase reporter gene assay. The format is functional, cell-based. The note with it: CV-1.

The target of data set [8] is T4, Peroxisome proliferator-activated receptor delta (Homo sapiens) (UniProt Q03181).
T4 sequence (whole entry): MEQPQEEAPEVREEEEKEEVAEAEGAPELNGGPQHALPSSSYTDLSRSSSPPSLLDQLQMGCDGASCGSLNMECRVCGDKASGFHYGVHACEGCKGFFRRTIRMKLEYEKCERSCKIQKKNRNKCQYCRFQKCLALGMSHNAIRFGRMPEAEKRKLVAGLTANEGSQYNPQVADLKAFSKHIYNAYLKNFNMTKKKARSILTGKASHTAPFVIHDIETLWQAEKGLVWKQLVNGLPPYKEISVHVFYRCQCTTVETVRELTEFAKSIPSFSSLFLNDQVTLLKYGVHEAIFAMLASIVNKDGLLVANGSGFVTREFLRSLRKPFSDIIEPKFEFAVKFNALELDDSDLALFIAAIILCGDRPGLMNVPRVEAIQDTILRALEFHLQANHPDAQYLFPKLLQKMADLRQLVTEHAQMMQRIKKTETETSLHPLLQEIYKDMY
Kind of data set: Agonist activity at PPARdelta expressed in african green monkey CV1 cells co-expressing MH100 by luciferase reporter gene assay. It is filed as functional, cell-based. The settings on record: CV-1.

Calls of active or inactive are those of the source. No cut-off for these calls is given here.

The AUC(0-t) is exposure summed from dosing to a finite time, without extrapolation to infinity. As a reminder, the half-life is how long it takes for the measured level to halve.

Regarding `CC(C)OC(=O)C1=CN(C(=O)c2ccc(F)c(F)c2)CC(C)(C)c2c1[nH]c1ccccc21` [TUROFEXORATE ISOPROPYL], the area under the curve AUC(0-t) in data set [1] stood at 7 µM·h. Moreover, the outcome in [2], in data set [4], in [5], in [6], in data set [7] and in data set [8] was inactive. The molecule also had a half-life in [3] of 40.1 h. The molecule further displayed an Activity in the data set on Mus musculus of 19%.
